Converted amounts (≈) assume the structure as drawn.
How the values were obtained:
Mycobacterium kansasii = experiment: Antimycobacterial activity against Mycobacterium kansasii ATCC 12478 assessed as reduction in bacterial growth incubated for 6 days by MABA method; assay type: functional; settings: ATCC 12478, 144 h
Mycolicibacterium aurum = experiment: Antimycobacterial activity against Mycobacterium aurum SB66 assessed as reduction in bacterial growth incubated for 18 to 20 hrs by broth microdilution method; assay type: functional
[1] = tested on: Mycolicibacterium smegmatis; experiment: Antimycobacterial activity against Mycobacterium smegmatis str. MC2 155 assessed as reduction in bacterial growth incubated for 18 to 20 hrs by broth microdilution method; assay type: functional
[2] = Cytotoxicity against human HeLa cells after 72 hrs by crystal violet biomass reduction assay; assay type: cell-based
[3] = tested on: Mycobacterium tuberculosis; experiment: Antimycobacterial activity against Mycobacterium tuberculosis H37Rv ATCC 27294 assessed as reduction in bacterial growth incubated for 7 days under 7H12 medium by MABA method; assay type: functional; settings: H37Rv ATCC 27294, 168 h
[4] = tested on: Mycobacterium tuberculosis; experiment: Antimycobacterial activity against Mycobacterium tuberculosis H37Rv ATCC 27294 assessed as reduction in bacterial growth incubated for 7 days under GAS medium by MABA method; assay type: functional; settings: H37Rv ATCC 27294, 168 h
[5] = Cytotoxicity against human MCF7 cells after 72 hrs by crystal violet biomass reduction assay; assay type: cell-based
Pseudomonas aeruginosa = experiment: Antibacterial activity against Pseudomonas aeruginosa KW799/61 assessed as reduction in bacterial growth incubated for 18 to 20 hrs by broth microdilution method; assay type: functional
Mycobacterium marinum = experiment: Antimycobacterial activity against Mycobacterium marinum ATCC 927 assessed as reduction in bacterial growth incubated for 5 days by MABA method; assay type: functional; settings: ATCC 927, 120 h
[6] = Cytotoxicity against human PC3 cells after 72 hrs by crystal violet biomass reduction assay; assay type: cell-based, PC-3
Acinetobacter baumannii = experiment: Antibacterial activity against Acinetobacter baumannii ATCC 17961 assessed as reduction in bacterial growth incubated for 18 to 20 hrs by broth microdilution method; assay type: functional
Staphylococcus aureus = experiment: Antibacterial activity against Staphylococcus aureus SG511 assessed as reduction in bacterial growth incubated for 18 to 20 hrs by broth microdilution method; assay type: functional
Micrococcus luteus = experiment: Antibacterial activity against Micrococcus luteus ATCC 10240 assessed as reduction in bacterial growth incubated for 18 to 20 hrs by broth microdilution method; assay type: functional
Mycolicibacterium vaccae = experiment: Antimycobacterial activity against Mycobacterium vaccae IMET10670 assessed as reduction in bacterial growth incubated for 18 to 20 hrs by broth microdilution method; assay type: functional

For `C[C@H]1COC2(CCN(c3nc(=O)c4cc(C(F)(F)F)cc([N+](=O)[O-])c4s3)CC2)O1` [BTZ-043], the MIC (Mycobacterium kansasii) was < 0.02 µM, the MIC (Mycolicibacterium aurum) was > 200 µM and the MIC [1] was 0.002 µM (≈ 0.000863 µg/mL). For the same compound, the CC50 at 72 h [2] was > 20 µM, the MIC [3] was < 0.02 µM and the MIC [4] was < 0.02 µM. The CC50 at 72 h [5] was > 20 µM, the MIC (Pseudomonas aeruginosa) was > 200 µM and the MIC (Mycobacterium marinum) was 0.037 µM (≈ 0.016 µg/mL). For the same compound, the CC50 at 72 h [6] was > 20 µM, the MIC (Acinetobacter baumannii) was > 200 µM and the MIC (Staphylococcus aureus) was > 200 µM. The MIC (Micrococcus luteus) was > 200 µM and the MIC (Mycolicibacterium vaccae) was 0.002 µM (≈ 0.000863 µg/mL).
In the case of `CO[C@H]1/C=C/O[C@@]2(C)Oc3c(C)c(O)c4c(O)c(c(/C=N/N5CCN(C)CC5)c(O)c4c3C2=O)NC(=O)/C(C)=C\C=C\[C@H](C)[C@H](O)[C@@H](C)[C@@H](O)[C@@H](C)[C@H](OC(C)=O)[C@@H]1C` [RIFAMPIN], the MIC (Mycobacterium kansasii) is reported as 0.1 µM (≈ 0.0823 µg/mL), the MIC [3] is reported as 0.05 µM (≈ 0.0411 µg/mL) and the MIC [4] is reported as 0.04 µM (≈ 0.0329 µg/mL). It also gave an MIC (Mycobacterium marinum) of 0.23 µM (≈ 0.189 µg/mL).
In the case of `C[C@H]1COC2(CCN(C3=NC(=O)c4cc(C(F)(F)F)cc([N+](=O)[O-])c4S3(=O)=O)CC2)O1`, the MIC (Mycobacterium kansasii) is reported as > 1 µM, the MIC (Mycolicibacterium aurum) is reported as > 200 µM and the MIC [1] is reported as > 0.5 µM. For the same compound, the CC50 at 72 h [2] was > 20 µM, the MIC [3] was 0.48 µM (≈ 0.222 µg/mL) and the MIC [4] was 0.51 µM (≈ 0.236 µg/mL). The CC50 at 72 h [5] was > 20 µM, the MIC (Pseudomonas aeruginosa) was > 200 µM and the MIC (Mycobacterium marinum) was > 1 µM. The CC50 at 72 h [6] was > 20 µM, the MIC (Acinetobacter baumannii) was > 200 µM and the MIC (Staphylococcus aureus) was 200 µM (≈ 92.7 µg/mL). The MIC (Micrococcus luteus) was > 200 µM and the MIC (Mycolicibacterium vaccae) was < 0.013 µM.
With `NNC(=O)c1ccncc1` [ISONIAZID] the MIC (Mycobacterium kansasii) was 3.86 µM (≈ 0.529 µg/mL), the MIC [3] was 0.1 µM (≈ 0.0137 µg/mL) and the MIC [4] was 0.03 µM (≈ 0.00411 µg/mL). For the same compound, the MIC (Mycobacterium marinum) was > 8 µM.
`O=C(O)c1cn(C2CC2)c2cc(N3CCNCC3)c(F)cc2c1=O` [CIPROFLOXACIN] showed an MIC (Mycolicibacterium aurum) of 0.02 µM (≈ 0.00663 µg/mL), an MIC [1] of 0.32 µM (≈ 0.106 µg/mL) and an MIC (Pseudomonas aeruginosa) of 0.156 µM (≈ 0.0517 µg/mL). It also gave an MIC (Acinetobacter baumannii) of 0.156 µM (≈ 0.0517 µg/mL), an MIC (Staphylococcus aureus; read-out: MIC) of 0.32 µM (≈ 0.106 µg/mL) and an MIC (Micrococcus luteus) of 1.25 µM (≈ 0.414 µg/mL). It also gave an MIC (Mycolicibacterium vaccae) of 0.32 µM (≈ 0.106 µg/mL).
In the case of `C[C@H]1COC2(CCN(c3nc(=O)c4cc(C(F)(F)F)cc([N+](=O)[O-])c4[s+]3[O-])CC2)O1` (some centres not stated), the MIC (Mycobacterium kansasii) is reported as 0.3 µM (≈ 0.134 µg/mL), the MIC (Mycolicibacterium aurum) is reported as 3.13 µM (≈ 1.4 µg/mL) and the MIC [1] is reported as < 0.013 µM. The CC50 at 72 h [2] was > 20 µM, the MIC [3] was 0.06 µM (≈ 0.0268 µg/mL) and the MIC [4] was < 0.02 µM. For the same compound, the CC50 at 72 h [5] was > 20 µM, the MIC (Pseudomonas aeruginosa) was > 200 µM and the MIC (Mycobacterium marinum) was 0.19 µM (≈ 0.085 µg/mL). For the same compound, the CC50 at 72 h [6] was 15 µM, the MIC (Acinetobacter baumannii) was > 200 µM and the MIC (Staphylococcus aureus; read-out: MIC) was 12.5 µM (≈ 5.59 µg/mL). For the same compound, the MIC (Micrococcus luteus) was 50 µM (≈ 22.4 µg/mL) and the MIC (Mycolicibacterium vaccae) was < 0.013 µM.

From ChEMBL document CHEMBL3393049, “Syntheses and Antituberculosis Activity of 1,3-Benzothiazinone Sulfoxide and Sulfone Derived from BTZ043” (ACS Med Chem Lett, 2015)
